Blank lines part the entries; values can stand above or below the substance they belong to.
Legend:
Salmonella typhimurium [1] = assay: Antimicrobial activity against Salmonella typhimurium C7731 after 24 hrs by NCCLS-protocol based assay; format: functional, Salmonella enterica subsp. enterica serovar Typhimurium; settings: Salmonella enterica, C7731, 24 h
Pseudomonas aeruginosa [2] = assay: Antimicrobial activity against Pseudomonas aeruginosa ATCC 27853 after 24 hrs by NCCLS-protocol based assay; format: functional; settings: ATCC 27853, 24 h
Pseudomonas aeruginosa [3] = assay: Bactericidal activity against Pseudomonas aeruginosa 26305 clinical isolates incubated for 4 hrs followed by culture spread on agar plates and cultured overnight; format: functional; settings: Pseudomonas aeruginosa, 26305, 4 h; read-out: MBC>99.9
Pseudomonas aeruginosa [4] = assay: Bactericidal activity against Pseudomonas aeruginosa PAO1 incubated for 4 hrs followed by culture spread on agar plates and cultured overnight; format: functional; settings: PAO1, 4 h, read-out: MBC>99.9
Acinetobacter baumannii [5] = assay: Bactericidal activity against Acinetobacter baumannii incubated for 4 hrs followed by culture spread on agar plates and cultured overnight; format: functional; settings: read-out: MBC>99.9
Escherichia coli [6] = assay: Antimicrobial activity against Escherichia coli K88 after 24 hrs by NCCLS-protocol based assay; format: functional; settings: K88, 24 h
Pseudomonas aeruginosa [7] = assay: Bactericidal activity against Pseudomonas aeruginosa CICC 21625 clinical isolates incubated for 4 hrs followed by culture spread on agar plates and cultured overnight; format: functional; settings: CICC 21625, 4 h, read-out: MBC>99.9
Escherichia coli [8] = assay: Bactericidal activity against Escherichia coli ATCC 25922 incubated for 4 hrs followed by culture spread on agar plates and cultured overnight in presence of 50% serum albumin; format: functional; settings: ATCC 25922, 4 h, read-out: MBC>99.9
Escherichia coli [9] = assay: Bactericidal activity against Escherichia coli ATCC 25922 incubated for 4 hrs followed by culture spread on agar plates and cultured overnight in presence of FeCl3; format: functional; settings: ATCC 25922, 4 h, read-out: MBC>99.9
Escherichia coli [10] = assay: Bactericidal activity against Escherichia coli ATCC 25922 incubated for 4 hrs followed by culture spread on agar plates and cultured overnight in presence of MgCl2; format: functional; settings: ATCC 25922, 4 h, read-out: MBC>99.9
Escherichia coli [11] = assay: Bactericidal activity against Escherichia coli K99 incubated for 4 hrs followed by culture spread on agar plates and cultured overnight; format: functional; settings: K99, 4 h, read-out: MBC>99.9
Escherichia coli [12] = assay: Bactericidal activity against Escherichia coli ATCC 25922 incubated for 4 hrs followed by culture spread on agar plates and cultured overnight in presence of ZnCl2; format: functional; settings: ATCC 25922, 4 h, read-out: MBC>99.9
Pseudomonas aeruginosa [13] = assay: Bactericidal activity against Pseudomonas aeruginosa ATCC 27853 incubated for 4 hrs followed by culture spread on agar plates and cultured overnight; format: functional; settings: ATCC 27853, 4 h, read-out: MBC>99.9
Escherichia coli [14] = assay: Bactericidal activity against Escherichia coli ATCC 25922 incubated for 4 hrs followed by culture spread on agar plates and cultured overnight in presence of KCl; format: functional; settings: ATCC 25922, 4 h, read-out: MBC>99.9
Escherichia coli [15] = assay: Bactericidal activity against Escherichia coli ATCC 25922 incubated for 4 hrs followed by culture spread on agar plates and cultured overnight in presence of NH4Cl; format: functional; settings: ATCC 25922, 4 h, read-out: MBC>99.9
Escherichia coli [16] = assay: Antimicrobial activity against Escherichia coli 078 after 24 hrs by NCCLS-protocol based assay; format: functional; settings: Escherichia coli, 078, 24 h
Escherichia coli [17] = assay: Bactericidal activity against Escherichia coli 078 incubated for 4 hrs followed by culture spread on agar plates and cultured overnight; format: functional; settings: Escherichia coli, 078, 4 h; read-out: MBC>99.9
Escherichia coli [18] = assay: Antimicrobial activity against Escherichia coli K99 after 24 hrs by NCCLS-protocol based assay; format: functional; settings: K99, 24 h
Pseudomonas aeruginosa [19] = assay: Antimicrobial activity against Pseudomonas aeruginosa CICC 21630 clinical isolates after 24 hrs by NCCLS-protocol based assay; format: functional; settings: CICC 21630, 24 h
Escherichia coli [20] = assay: Antimicrobial activity against Escherichia coli UB1005 after 24 hrs by NCCLS-protocol based assay; format: functional; settings: UB1005, 24 h
Acinetobacter baumannii [21] = assay: Antimicrobial activity against Acinetobacter baumannii after 24 hrs by NCCLS-protocol based assay; format: functional
Pseudomonas aeruginosa [22] = assay: Antimicrobial activity against Pseudomonas aeruginosa 26305 clinical isolates after 24 hrs by NCCLS-protocol based assay; format: functional; settings: Pseudomonas aeruginosa, 26305, 24 h
Escherichia coli [23] = assay: Bactericidal activity against Escherichia coli ATCC 25922 incubated for 4 hrs followed by culture spread on agar plates and cultured overnight in presence of NaCl; format: functional; settings: ATCC 25922, 4 h, read-out: MBC>99.9
Escherichia coli [24] = assay: Bactericidal activity against Escherichia coli ATCC 25922 incubated for 4 hrs followed by culture spread on agar plates and cultured overnight in presence of 12.5% serum albumin; format: functional; settings: ATCC 25922, 4 h, read-out: MBC>99.9
Escherichia coli [25] = assay: Bactericidal activity against Escherichia coli ATCC 25922 incubated for 4 hrs followed by culture spread on agar plates and cultured overnight in presence of CaCl2; format: functional; settings: ATCC 25922, 4 h, read-out: MBC>99.9
Escherichia coli [26] = assay: Bactericidal activity against Escherichia coli UB1005 incubated for 4 hrs followed by culture spread on agar plates and cultured overnight; format: functional; settings: UB1005, 4 h, read-out: MBC>99.9
[27] = Bactericidal activity against Salmonella pullorum C7913 incubated for 4 hrs followed by culture spread on agar plates and cultured overnight; format: functional, Salmonella enterica subsp. enterica serovar Pullorum; settings: Salmonella enterica, C7913, 4 h; read-out: MBC>99.9
Escherichia coli [28] = assay: Bactericidal activity against Escherichia coli ATCC 25922 incubated for 4 hrs followed by culture spread on agar plates and cultured overnight; format: functional; settings: ATCC 25922, 4 h, read-out: MBC>99.9
Escherichia coli [29] = assay: Bactericidal activity against Escherichia coli ATCC 25922 incubated for 4 hrs followed by culture spread on agar plates and cultured overnight in presence of 25% serum albumin; format: functional; settings: ATCC 25922, 4 h, read-out: MBC>99.9
Klebsiella pneumoniae [30] = assay: Bactericidal activity against Klebsiella pneumoniae incubated for 4 hrs followed by culture spread on agar plates and cultured overnight; format: functional; settings: read-out: MBC>99.9
[31] = Antimicrobial activity against Salmonella pullorum C7913 after 24 hrs by NCCLS-protocol based assay; format: functional, Salmonella enterica subsp. enterica serovar Pullorum; settings: Salmonella enterica, C7913, 24 h
Klebsiella pneumoniae [32] = assay: Antimicrobial activity against Klebsiella pneumoniae after 24 hrs by NCCLS-protocol based assay; format: functional
Pseudomonas aeruginosa [33] = assay: Antimicrobial activity against Pseudomonas aeruginosa PAO1 after 24 hrs by NCCLS-protocol based assay; format: functional; settings: PAO1, 24 h
Salmonella typhimurium [34] = assay: Bactericidal activity against Salmonella typhimurium ATCC 14028 incubated for 4 hrs followed by culture spread on agar plates and cultured overnight; format: functional, Salmonella enterica subsp. enterica serovar Typhimurium; settings: Salmonella enterica, ATCC 14028, 4 h; read-out: MBC>99.9
Pseudomonas aeruginosa [35] = assay: Bactericidal activity against Pseudomonas aeruginosa 25349 clinical isolates incubated for 4 hrs followed by culture spread on agar plates and cultured overnight; format: functional; settings: Pseudomonas aeruginosa, 25349, 4 h; read-out: MBC>99.9
Pseudomonas aeruginosa [36] = assay: Antimicrobial activity against Pseudomonas aeruginosa 25349 clinical isolates after 24 hrs by NCCLS-protocol based assay; format: functional; settings: Pseudomonas aeruginosa, 25349, 24 h
Escherichia coli [37] = assay: Bactericidal activity against Escherichia coli K88 incubated for 4 hrs followed by culture spread on agar plates and cultured overnight; format: functional; settings: K88, 4 h, read-out: MBC>99.9
Pseudomonas aeruginosa [38] = assay: Bactericidal activity against Pseudomonas aeruginosa CICC 21630 clinical isolates incubated for 4 hrs followed by culture spread on agar plates and cultured overnight; format: functional; settings: CICC 21630, 4 h, read-out: MBC>99.9
Pseudomonas aeruginosa [39] = assay: Antimicrobial activity against Pseudomonas aeruginosa CICC 21625 clinical isolates after 24 hrs by NCCLS-protocol based assay; format: functional; settings: CICC 21625, 24 h
Escherichia coli [40] = assay: Antimicrobial activity against Escherichia coli ATCC 25922 after 24 hrs by NCCLS-protocol based assay; format: functional; settings: ATCC 25922, 24 h
Salmonella typhimurium [41] = assay: Bactericidal activity against Salmonella typhimurium C7731 incubated for 4 hrs followed by culture spread on agar plates and cultured overnight; format: functional, Salmonella enterica subsp. enterica serovar Typhimurium; settings: Salmonella enterica, C7731, 4 h; read-out: MBC>99.9
Salmonella typhimurium [42] = assay: Antimicrobial activity against Salmonella typhimurium ATCC 14028 after 24 hrs by NCCLS-protocol based assay; format: functional, Salmonella enterica subsp. enterica serovar Typhimurium; settings: Salmonella enterica, ATCC 14028, 24 h

MIC95 (Salmonella typhimurium [1]): 8 µM
MIC95 (Pseudomonas aeruginosa [2]): 4 µM
MIC95 (Escherichia coli [6]): 1 µM
MIC95 (Escherichia coli [16]): 2 µM
MIC95 (Escherichia coli [18]): 2 µM
MIC95 (Pseudomonas aeruginosa [19]): 32 µM
MIC95 (Escherichia coli [20]): 2 µM
MIC95 (Acinetobacter baumannii [21]): 4 µM
MIC95 (Pseudomonas aeruginosa [22]): 64 µM
MIC95 [31]: 4 µM
MIC95 (Klebsiella pneumoniae [32]): 8 µM
MIC95 (Pseudomonas aeruginosa [33]): 4 µM
MIC95 (Pseudomonas aeruginosa [36]): 32 µM
MIC95 (Pseudomonas aeruginosa [39]): 64 µM
MIC95 (Escherichia coli [40]): 1 µM
MIC95 (Salmonella typhimurium [42]): 4 µM
Substance: H-LKPLLKPLLKPLLKPLLKPLLKPL-NH2
MBC (Pseudomonas aeruginosa [3]): > 64 µM
MBC (Pseudomonas aeruginosa [4]): 8 µM
MBC (Acinetobacter baumannii [5]): 4 µM
MBC (Pseudomonas aeruginosa [7]): 64 µM
MBC (Escherichia coli [8]): > 128 µM
MBC (Escherichia coli [9]): 4 µM
MBC (Escherichia coli [10]): 16 µM
MBC (Escherichia coli [11]): 2 µM
MBC (Escherichia coli [12]): 2 µM
MBC (Pseudomonas aeruginosa [13]): 4 µM
MBC (Escherichia coli [14]): 1 µM
MBC (Escherichia coli [15]): 4 µM
MBC (Escherichia coli [17]): 2 µM
MBC (Escherichia coli [23]): 16 µM
MBC (Escherichia coli [24]): 8 µM
MBC (Escherichia coli [25]): > 128 µM
MBC (Escherichia coli [26]): 4 µM
MBC [27]: 8 µM
MBC (Escherichia coli [28]): 2 µM
MBC (Escherichia coli [29]): > 128 µM
MBC (Klebsiella pneumoniae [30]): 8 µM
MBC (Salmonella typhimurium [34]): 8 µM
MBC (Pseudomonas aeruginosa [35]): 32 µM
MBC (Escherichia coli [37]): 2 µM
MBC (Pseudomonas aeruginosa [38]): 64 µM
MBC (Salmonella typhimurium [41]): 8 µM

MIC95 (Salmonella typhimurium [1]): 2 µM
MIC95 (Pseudomonas aeruginosa [2]): 8 µM
MIC95 (Escherichia coli [6]): 2 µM
MIC95 (Escherichia coli [16]): 2 µM
MIC95 (Escherichia coli [18]): 2 µM
MIC95 (Pseudomonas aeruginosa [19]): 8 µM
MIC95 (Escherichia coli [20]): 2 µM
MIC95 (Acinetobacter baumannii [21]): 2 µM
MIC95 (Pseudomonas aeruginosa [22]): 32 µM
MIC95 [31]: 2 µM
MIC95 (Klebsiella pneumoniae [32]): 8 µM
MIC95 (Pseudomonas aeruginosa [33]): 4 µM
MIC95 (Pseudomonas aeruginosa [36]): 32 µM
MIC95 (Pseudomonas aeruginosa [39]): 32 µM
MIC95 (Escherichia coli [40]): 2 µM
MIC95 (Salmonella typhimurium [42]): 4 µM
Substance: H-LRPLLRPLLRPLLRPLLRPLLRPL-NH2
MBC (Pseudomonas aeruginosa [3]): 32 µM
MBC (Pseudomonas aeruginosa [4]): 8 µM
MBC (Acinetobacter baumannii [5]): 4 µM
MBC (Pseudomonas aeruginosa [7]): 32 µM
MBC (Escherichia coli [8]): 32 µM
MBC (Escherichia coli [9]): 4 µM
MBC (Escherichia coli [10]): 4 µM
MBC (Escherichia coli [11]): 4 µM
MBC (Escherichia coli [12]): 2 µM
MBC (Pseudomonas aeruginosa [13]): 16 µM
MBC (Escherichia coli [14]): 2 µM
MBC (Escherichia coli [15]): 2 µM
MBC (Escherichia coli [17]): 2 µM
MBC (Escherichia coli [23]): 4 µM
MBC (Escherichia coli [24]): 8 µM
MBC (Escherichia coli [25]): > 128 µM
MBC (Escherichia coli [26]): 4 µM
MBC [27]: 4 µM
MBC (Escherichia coli [28]): 2 µM
MBC (Escherichia coli [29]): 16 µM
MBC (Klebsiella pneumoniae [30]): 8 µM
MBC (Salmonella typhimurium [34]): 8 µM
MBC (Pseudomonas aeruginosa [35]): 32 µM
MBC (Escherichia coli [37]): 4 µM
MBC (Pseudomonas aeruginosa [38]): 16 µM
MBC (Salmonella typhimurium [41]): 8 µM
